Data: paper PMC9830933 (European Journal of Medicinal Chemistry, 2023)

Columns and labels:
Aqueous solubility = format: physicochemical
MHV-A59 [1] = experiment: In vitro anti-MHV-A59 activity assay in L929 cells; format: cell-based, murine coronavirus mouse hepatitis virus A-59; conditions: for potency relative to GS-441524 (MHV-A59 EC50), fold more potent: vs GS-441524 EC50 = 10.01 μM; for effect on cellular replication of MHV-A59 (in words): up to 200 μM
MHV-A59 [2] = experiment: Mouse MHV efficacy study; format: in vivo, BALB/c mice; conditions: for viral titers (MHV-A59 RNA copies) in the liver (in words): mouse, in vivo
FCoV = conditions: intraperitoneal injection, FCoV-afflicted cats; cited from earlier work
[3] = ATV041 10, 50, 200 mg/kg oral QD, 3 dpi

## CC(C(=O)OC[C@H]1O[C@@](C#N)(c2ccc3c(N)ncnn23)[C@H](O)[C@@H]1O)c1cccc(Oc2ccccc2)c1 (stereo partly drawn) [ATV038, ((2R,3S,4R,5R)-5-(4-aminopyrrolo[2,1-f][1,2,4]triazin-7-yl)-5-cyano-3,4-dihydroxytetrahydrofuran-2-yl)methyl 2-(3-phenoxyphenyl)propanoate]
Aqueous solubility
  aqueous solubility (in words): slightly better solubility
MHV-A59 [1]
  potency relative to GS-441524 (MHV-A59 EC50), fold more potent: about 8 fold

## COc1ccc2cc([C@H](C)C(=O)OC[C@H]3O[C@@](C#N)(c4ccc5c(N)ncnn45)[C@H](O)[C@@H]3O)ccc2c1 [ATV039, ((2R,3S,4R,5R)-5-(4-aminopyrrolo[2,1-f][1,2,4]triazin-7-yl)-5-cyano-3,4-dihydroxytetrahydrofuran-2-yl)methyl (S)-2-(6-methoxynaphthalen-2-yl)propanoate]
Aqueous solubility
  aqueous solubility (in words): slightly better solubility

## CC(C(=O)OC[C@H]1O[C@@](C#N)(c2ccc3c(N)ncnn23)[C@H](O)[C@@H]1O)c1cccc(C(=O)c2ccccc2)c1 (stereo partly drawn) [ATV040, ((2R,3S,4R,5R)-5-(4-aminopyrrolo[2,1-f][1,2,4]triazin-7-yl)-5-cyano-3,4-dihydroxytetrahydrofuran-2-yl)methyl 2-(3-benzoylphenyl)propanoate]
Aqueous solubility
  aqueous solubility (in words): significantly improved the solubility

## CC(C)Cc1ccc(C(C)C(=O)OC[C@H]2O[C@@](C#N)(c3ccc4c(N)ncnn34)[C@H](O)[C@@H]2O)cc1 (stereo partly drawn) [ATV041, ((2R,3S,4R,5R)-5-(4-aminopyrrolo[2,1-f][1,2,4]triazin-7-yl)-5-cyano-3,4-dihydroxytetrahydrofuran-2-yl)methyl 2-(4-isobutylphenyl)propanoate]
Aqueous solubility
  aqueous solubility (in words): slightly better solubility
MHV-A59 [1]
  potency relative to GS-441524 (MHV-A59 EC50), fold more potent: about 8 fold
MHV-A59 [2]; 10 mg/kg oral QD, 23-day observation
  survival rate: 100%
MHV-A59 [2]; 200 mg/kg oral QD, 3 dpi
  pro-inflammatory factors in the lungs (in words): considerably reduced to a level similar to the mock-infected mice
MHV-A59 [2]; 3 dpi
  liver histopathology (H&E) (in words): obvious remission effects
  lung histopathology (H&E) (in words): alleviated symptoms
MHV-A59 [2]; [3]
  dose dependence of inhibition of viral replication in the liver (in words): dose-dependently inhibited
  dose dependence of inhibition of viral replication in the lungs (in words): dose-dependent inhibition
MHV-A59 [2]
  viral titers (MHV-A59 RNA copies) in the liver (in words): below the detection limit
MHV-A59 [2]; serum chemical analysis, 3 dpi
  plasma ALT and AST (in words): significantly reduced

## N#C[C@@]1(c2ccc3c(N)ncnn23)O[C@H](COC(=O)Cc2ccccc2Nc2c(Cl)cccc2Cl)[C@@H](O)[C@H]1O [ATV042, ((2R,3S,4R,5R)-5-(4-aminopyrrolo[2,1-f][1,2,4]triazin-7-yl)-5-cyano-3,4-dihydroxytetrahydrofuran-2-yl)methyl 2-(2-((2,6-dichlorophenyl)amino)phenyl)acetate]
Aqueous solubility
  aqueous solubility (in words): hardly soluble

## COc1ccc2c(c1)c(CC(=O)OC[C@H]1O[C@@](C#N)(c3ccc4c(N)ncnn34)[C@H](O)[C@@H]1O)c(C)n2C(=O)c1ccc(Cl)cc1 [ATV043, ((2R,3S,4R,5R)-5-(4-aminopyrrolo[2,1-f][1,2,4]triazin-7-yl)-5-cyano-3,4-dihydroxytetrahydrofuran-2-yl)methyl 2-(1-(4-chlorobenzoyl)-5-methoxy-2-methyl-1H-indol-3-yl)acetate]
Aqueous solubility
  aqueous solubility (in words): hardly soluble

## N#C[C@@]1(c2ccc3c(N)ncnn23)O[C@H](CO)[C@@H](O)[C@H]1O [GS-441524, 1′-CN-4-aza-7,9-dideazaadenosine C-nucleoside, reference compound]
MHV-A59 [2]; 100 mg/kg GS-441524 (B1) or 200 mg/kg ATV041 (C3), same molar concentration, oral QD, 3 dpi
  viral titer / viral replication in the lungs (in words): about one order of magnitude
MHV-A59 [2]; 3 dpi
  lung histopathology (H&E) (in words): did not demonstrate protect effects
MHV-A59 [2]
  viral titers (MHV-A59 RNA copies) in the liver (in words): below the detection limit
FCoV
  cure rate: up to 96%

## CC(C)Cc1ccc(C(C)C(=O)O)cc1 (centres unmarked) [Ibuprofen, reference compound]
MHV-A59 [1]; Fig. S1
  effect on cellular replication of MHV-A59 (in words): did not affect
MHV-A59 [1]; Fig. S1, listed as ibuprofen
  effect on cellular replication of MHV-A59 (in words): did not inhibit
MHV-A59 [2]; ibuprofen 70 mg/kg oral QD dosed alone, 3 dpi
  antiviral effect in lung and liver (in words): did not show an antiviral effect
